Results from the supplement of paper PMC10307832.

Columns and labels:
Assay in all cases: relative viability (nuclei count vs DMSO), 5 days (fraction); higher = more cells survive
[1] = compound: C1CN(CCC1C(C2=CC3=C(C=C2)OCO3)(C4=CC5=C(C=C4)OCO5)O)C(=O)OC6=CC=C(C=C6)[N+](=O)[O-] [JZL-184] + Cc1nc(NC(=O)N2CCC[C@H]2C(N)=O)sc1-c1ccnc(C(C)(C)C(F)(F)F)c1 [Alpelisib] (partner 2 µM)
Outline: (§1)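 Cells from lung cancer lines were seeded into 1536-well plates and, one day later, dosed by pin tool. Treatments were either a single drug or a fixed dose of an anchor drug with five library-drug doses (not always all listed) in √10 steps. After 5 days, nuclei were stained in a one-step fixation (final 0.05% Triton X-100, 1% formaldehyde, 1 ug/ml Hoechst) and counted on 4× images, and relative viability is the treated-to-vehicle nuclei ratio, as the median of duplicate plates.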

[2] = compound: C1CN(CCC1C(C2=CC3=C(C=C2)OCO3)(C4=CC5=C(C=C4)OCO5)O)C(=O)OC6=CC=C(C=C6)[N+](=O)[O-] [JZL-184] + NC(=O)Nc1cc(-c2cccc(F)c2)sc1C(=O)N[C@H]1CCCNC1 [AZD7762] (partner 0.2 µM)
Outline: as §1

[3] = compound: C1CN(CCC1C(C2=CC3=C(C=C2)OCO3)(C4=CC5=C(C=C4)OCO5)O)C(=O)OC6=CC=C(C=C6)[N+](=O)[O-] [JZL-184] + N=C(N)NC(=N)NCCc1ccccc1 [Phenformin] (partner 250 µM)
Outline: as §1

[4] = compound: C1CN(CCC1C(C2=CC3=C(C=C2)OCO3)(C4=CC5=C(C=C4)OCO5)O)C(=O)OC6=CC=C(C=C6)[N+](=O)[O-] [JZL-184] + Cc1nc(Nc2ncc(C(=O)Nc3c(C)cccc3Cl)s2)cc(N2CCN(CCO)CC2)n1 [Dasatinib] (partner 0.075 µM)
Outline: as §1

[5] = compound: C1CN(CCC1C(C2=CC3=C(C=C2)OCO3)(C4=CC5=C(C=C4)OCO5)O)C(=O)OC6=CC=C(C=C6)[N+](=O)[O-] [JZL-184] + CS(=O)(=O)CCNCc1ccc(-c2ccc3ncnc(Nc4ccc(OCc5cccc(F)c5)c(Cl)c4)c3c2)o1 [Lapatinib] (partner 2 µM)
Outline: as §1

Cell Line	relative viability ([1]; first compound 0.04 µM)	relative viability ([1]; first compound 0.4 µM)	relative viability ([1]; first compound 1.265 µM)	relative viability ([1]; first compound 4 µM)	relative viability ([2]; first compound 0.04 µM)	relative viability ([2]; first compound 1.265 µM)	relative viability ([2]; first compound 4 µM)	relative viability ([3]; first compound 0.04 µM)	relative viability ([3]; first compound 0.4 µM)	relative viability ([3]; first compound 1.265 µM)	relative viability ([3]; first compound 4 µM)	relative viability ([4]; first compound 0.04 µM)	relative viability ([4]; first compound 0.4 µM)	relative viability ([4]; first compound 1.265 µM)	relative viability ([4]; first compound 4 µM)	relative viability ([5]; first compound 0.04 µM)	relative viability ([5]; first compound 0.4 µM)	relative viability ([5]; first compound 1.265 µM)	relative viability ([5]; first compound 4 µM)	relative viability ([2]; first compound 0.4 µM)
HCC-78	0.325	0.317	0.375	0.315	0.594	0.688	0.618	0.63	0.611	0.754	0.752	0.276	0.359	0.391	0.301	0.634	0.787	0.755	0.302	–
HCC-366	0.355	0.436	0.506	0.358	0.293	0.275	0.257	0.664	0.553	0.653	0.624	0.892	0.64	0.61	0.638	1.19	0.959	1.13	1.05	0.209
HCC-827	0.724	0.927	0.981	0.952	0.147	0.19	0.206	0.424	0.376	0.424	0.379	0.328	0.31	0.34	0.305	0.228	0.196	0.234	0.221	0.182
HOP-62	1.13	1.05	1.05	0.96	0.617	0.754	0.417	0.787	0.639	0.705	0.683	0.561	0.679	0.659	0.631	1.19	1	0.665	0.986	0.53
LC-2-ad	0.858	0.822	0.95	0.839	0.909	0.853	0.829	0.639	0.549	0.67	0.538	0.815	0.496	0.815	0.463	1.19	0.889	1.05	0.952	0.8
LCLC-97TM1	0.242	–	0.252	0.295	0.281	0.244	0.303	0.396	0.431	0.449	0.435	0.903	0.778	0.911	0.763	1.08	–	1.01	0.858	0.134
LK-2	1.55	1.14	1.06	1.06	0.438	0.422	0.411	0.374	0.676	0.678	0.416	0.379	0.364	0.295	0.325	1.24	0.878	1.04	0.972	0.501
LOU-NH91	0.778	0.728	0.745	0.711	0.785	0.81	0.733	0.795	0.626	0.774	0.708	0.612	0.544	0.605	0.567	0.783	0.741	0.845	0.727	0.754
LU99A	0.587	0.535	0.538	0.486	0.364	0.346	0.328	0.86	0.763	0.999	0.968	0.717	0.443	0.525	0.541	1.21	0.966	1.22	0.963	0.363
LXF-289	0.977	1.05	1.06	0.951	1.07	1.1	1.06	0.574	0.496	0.546	0.525	0.173	0.281	0.207	0.307	0.92	0.866	0.924	0.852	1.08
NCI-H23	0.876	0.631	0.587	0.646	0.203	0.25	0.283	0.879	0.793	0.817	0.855	0.896	0.81	0.864	0.751	1.39	0.969	1.26	1.07	–
NCI-H322M	0.656	0.777	0.749	0.775	0.549	0.629	0.521	0.844	0.718	0.818	0.662	0.252	0.265	0.264	0.252	0.654	0.599	0.562	0.578	0.523
NCI-H358	1.05	0.803	0.973	0.788	0.585	0.569	0.51	0.422	0.32	0.304	0.328	0.167	0.134	0.15	0.155	0.52	0.418	0.448	0.436	0.639
NCI-H460	0.643	0.465	0.47	0.401	0.639	0.659	0.599	0.626	0.483	0.521	0.485	0.62	0.394	0.553	0.503	1.86	0.894	1.09	0.881	0.617
NCI-H596	0.501	0.487	0.553	0.37	1.16	1.11	1.29	0.895	0.663	0.895	0.769	0.739	0.437	0.658	0.566	1.12	0.948	1.04	0.992	0.911
NCI-H647	1.15	0.957	1.07	1.2	0.45	0.426	0.451	0.532	0.527	0.595	0.546	0.177	0.174	0.283	0.145	1.35	0.969	1.28	1.14	0.391
NCI-H650	1.23	0.951	1.16	1.1	0.997	1.07	0.988	0.44	0.388	0.469	0.422	0.439	0.392	0.472	0.441	0.916	0.793	1.07	0.894	1.1
NCI-H727	0.539	0.627	0.542	0.629	0.493	0.621	0.595	0.676	0.517	0.509	0.45	0.37	0.443	0.398	0.334	0.92	0.688	0.862	0.807	0.464
NCI-H838	1.08	1.09	1.03	0.957	1.01	0.929	0.915	0.594	0.601	0.643	0.608	0.286	0.307	0.289	0.3	1.19	1.04	1.16	0.94	0.896
NCI-H1355	0.774	0.826	0.828	0.81	0.922	0.769	0.733	0.421	0.427	0.505	0.429	0.723	0.662	0.783	0.672	0.974	0.921	1.02	0.943	0.674
NCI-H1395	0.993	1.01	1.1	1.04	0.429	0.396	0.403	0.392	0.421	0.491	0.413	0.424	0.435	0.414	0.404	0.997	0.953	0.91	0.995	0.413
NCI-H1437	1.12	0.971	0.92	0.916	1.19	1.15	1.19	0.301	0.307	0.302	0.288	0.414	0.304	0.434	0.405	0.984	0.717	0.773	0.759	1.07
NCI-H1651	1.05	0.929	1.03	0.834	0.427	0.456	0.474	0.393	0.3	0.337	0.353	0.407	0.376	0.487	0.42	0.833	0.715	0.888	0.798	0.455
NCI-H1666	1.04	0.919	1.05	1.06	0.915	0.818	0.923	0.614	0.585	0.538	0.534	0.842	0.861	0.764	0.783	0.647	0.65	0.585	0.633	0.764
NCI-H1734	0.658	0.545	0.714	0.642	0.571	0.719	0.625	0.469	0.36	0.38	0.349	0.503	0.425	0.442	0.453	1.22	0.959	1.15	1.04	0.518
NCI-H1755	0.942	0.866	0.943	0.885	0.397	0.456	0.433	0.636	0.621	0.614	0.601	0.445	0.428	0.406	0.396	1.02	1.01	1.07	0.962	0.379
NCI-H1792	0.835	0.613	0.762	0.757	0.747	0.713	0.858	0.288	0.147	0.62	0.281	0.854	0.771	0.912	0.718	0.974	0.858	0.926	0.96	0.548
NCI-H1793	0.689	0.706	0.77	0.691	0.359	0.742	0.401	0.162	0.368	0.44	0.456	0.511	0.36	0.41	0.369	0.853	0.492	0.812	0.422	0.465
NCI-H1915	1.08	1.04	1.04	1.04	0.76	0.726	0.697	0.378	0.364	0.377	0.367	0.318	0.298	0.364	0.281	1.15	0.973	0.998	0.935	0.58
NCI-H1944	0.798	0.869	0.842	0.804	0.556	0.531	0.54	0.194	0.192	0.198	0.199	0.256	0.208	0.221	0.213	0.805	0.803	0.875	0.846	0.469
